According to patent US20130059903A1, “Compositions and Methods for Characterizing Breast Cancer” (THE JOHNS HOPKINS UNIVERSITY, priority 2010, published 2013):

Experiments:
Assay type in all cases: cell-based
ER = ER re-expression after methylation inhibitor / HDAC inhibitor treatment (qRT-PCR, immunoblot); conditions: MCF-7/Twist cells; 1 μM AZA, 10 μM VPA, three days; qRT-PCR and immunoblotting
Procedure: Cells were treated with 1 μM AZA for three days and DNA processed for demethylation studies by methylation specific quantitative PCR (MS-qPCR). Total proteins were extracted and immunoblotted to analyze the effect of demethylation on ER expression. Cells were treated with HDAC inhibitor VPA at 10 μM concentration for three days and processed similarly.

MCF-7 cells [1] = assay: Dye efflux assays
Procedure: (§1) Semiconfluent cells were washed once with HBSS and resuspended in growth medium at 1×10^6 cells/ml and 5 μg/ml Hoechst 33342 (Sigma-Aldrich, St. Louis, Mo.) and incubated for 45 minutes at 37° C. in a constant-temperature water bath. Subsequently, the cells were washed once in cold HBSS/2% BSA and resuspended in warm medium and incubated for 45 minutes at 37° C. for efflux. Cells were centrifuged and mounted on a slide before photomicroscopy.
(§2) For Rhodamine 123 (Sigma-Aldrich) staining, cells were trypsinized and washed twice in PBS/1% FCS. One million cells were resuspended in 100 μl of PBS/1% FCS and stained with 100 to 500 ng/ml Rhodamine 123 for 15 to 30 minutes at 37° C. Cells were washed twice at room temperature, resuspended, and incubated without Rhodamine 123 for 15 to 30 minutes at 37° C. to allow for efflux to occur. Rhodamine efflux was subsequently determined by flow cytometry on a FACScan II flow cytometer.

MCF-7/Twist cells [2] = assay: Dye efflux assays
Procedure: as §1, §2

MCF-7 cells [3] = assay: Cell cycle analysis by flow cytometry after anti-estrogen treatment; conditions: 1 μM 4-hydroxytamoxifen or 1 nM fulvestrant in PRF-MEM/5% CSS, three days
Procedure: (§3) Cell lines were obtained from ATCC (Manassas, Va.) and maintained as instructed. Construction of MCF-7/Twist and MCF 10A/Twist cell lines have been described earlier (19, 23). For transient expression, cells were transfected using either retroviral constructs (generated in-house) or lentiviral constructs (Open Biosystems, Huntsville, Ala.). For hormone studies, cells were grown for two days in phenol-red free minimal essential media (PRF-MEM) containing 5% charcoal stripped serum (CSS). For anti-estrogen treatment, PRFMEM/5% CSS media was supplemented with 1 μM 4-hydroxytamoxifen (tamoxifen) or 1 nM fulvestrant. Three days following treatment, the cells were fixed in 70% ethanol and cell cycle analysis performed on a FacScan I (BD Biosciences, San Jose, Calif.). Independent experiments were repeated four times. Data was analyzed using FlowJo (Tree Star Inc., Ashland, Oreg.) and ModFit LT 2.0 software (Verity House Software, Topsham, Me.).

MCF-7/Twist cells [4] = assay: as above; conditions: 1 μM 4-hydroxytamoxifen or 1 nM fulvestrant in PRF-MEM/5% CSS, three days
Procedure: as §3

[5] = 5 μg/ml Hoechst 33342, 45 minutes efflux, microscopy

With `Nc1ncn([C@H]2C[C@H](O)[C@@H](CO)O2)c(=O)n1` [AZA, 5-aza 2′-deoxycytidine] the “ER expression (transcript and protein levels)” value (ER) was “significant increase”.

For `CCOc1ccc(-c2nc3ccc(-c4nc5ccc(N6CCN(C)CC6)cc5[nH]4)cc3[nH]2)cc1` [Hoechst 33342], the “relative fluorescence intensity per cell (dye retained after efflux)” value (MCF-7 cells [1]; [5]) was 65 and the “relative fluorescence intensity per cell (dye retained after efflux)” value (MCF-7/Twist cells [2]; [5]) was 57.

In the case of `CCCC(CCC)C(=O)O` [VPA, valproic acid], the “ER expression (transcript and protein levels)” value (ER) was “significant increase”.

`C[C@]12CC[C@@H]3c4ccc(O)cc4C[C@@H](CCCCCCCCC[S+]([O-])CCCC(F)(F)C(F)(F)F)[C@H]3[C@@H]1CC[C@@H]2O` (stereo partly drawn) [fulvestrant] was tested, and the “G1 (percentage of cells in cell cycle phase)” value (MCF-7 cells [3]) was 86%, the “G2/M (percentage of cells in cell cycle phase)” value (MCF-7 cells [3]) was 5.8% and the “S (percentage of cells in cell cycle phase)” value (MCF-7 cells [3]) was 3.9%. The “G1 (percentage of cells in cell cycle phase)” value (MCF-7/Twist cells [4]) was 67.7%, the “G2/M (percentage of cells in cell cycle phase)” value (MCF-7/Twist cells [4]) was 13.3% and the “S (percentage of cells in cell cycle phase)” value (MCF-7/Twist cells [4]) was 16.6%.

For Rhodamine 123, the “mean fluorescence intensity (dye retained after efflux)” value (MCF-7 cells [1]; Rhodamine 123, flow cytometry) was 205 and the “mean fluorescence intensity (dye retained after efflux)” value (MCF-7/Twist cells [2]; Rhodamine 123, flow cytometry) was 96.
